The values that follow come from US20260199267A1, “METHOD FOR PREPARING ENDO-C[…] FROM VEGETABLE OILS USING LIPASE AND USE THEREOF” (KOREA RESEARCH INSTITUTE OF BIOSCIENCE AND BIOTECHNOLOGY, priority 2022, published 2026).

Holding throughout (type): cell-based
Assay [1] addresses cannabinoid receptor 2 (CB2) (Homo sapiens, UniProt P34972). The assay is described as follows: agonist effect on cannabinoid receptor, cAMP measurement. The settings on record: CB2, concentration-response graph.
Protocol: The efficacy was evaluated by measuring the amount of cyclic adenosine monophosphate (cAMP) generated from adenosine triphosphate (ATP) through the activation of adenylyl cyclase, which is triggered by G-protein alpha (G-protein a) as part of the stepwise signal transduction pathway initiated upon the binding of the test sample to the receptor. The efficacy was evaluated by measuring the amount of cyclic adenosine monophosphate (cAMP) generated from adenosine triphosphate (ATP) through G-protein alpha (G-protein a), which is activated by the binding of the sample to the receptor as part of the stepwise signal transduction pathway, and adenylyl cyclase, which is activated by G-protein a.
In assay [2] the test system is IL-1β production in LPS-treated RAW 264.7 cells. Description: pro-inflammatory cytokine production, ELISA. The note with it: reference inhibitor, concentration not given, 24 h. On the procedure:
(§1) RAW 264.7 cells were dispensed into a 24-well plate at a density of […], incubated for 24 hours, and then treated with a non-cytotoxic concentration of the sample and LPS ([…]), followed by an additional 24-hour incubation. The cell culture was centrifuged at 5,000 rpm for 5 minutes, and the supernatant was collected. The levels of […] (FIG. 88), IL-6 (FIG. 89), and TNF-α (FIG. 90) were then measured using an ELISA kit according to the manufacturer's instructions.

Assay [3] concerns IL-6 production in LPS-treated RAW 264.7 cells. The assay is described as follows: pro-inflammatory cytokine production, ELISA. The note with it: reference inhibitor, concentration not given, 24 h. On the procedure:
as §1
In general terms: ELISA stands for enzyme-linked immunosorbent assay.

Assay [4] deals with TNF-α production in LPS-treated RAW 264.7 cells. The assay is described as follows: pro-inflammatory cytokine production, ELISA. The note with it: reference inhibitor, concentration not given, 24 h. On the procedure:
as §1

The structures appear in SMILES notation.

Sequence of cannabinoid receptor 2 (CB2) (P34972 whole entry): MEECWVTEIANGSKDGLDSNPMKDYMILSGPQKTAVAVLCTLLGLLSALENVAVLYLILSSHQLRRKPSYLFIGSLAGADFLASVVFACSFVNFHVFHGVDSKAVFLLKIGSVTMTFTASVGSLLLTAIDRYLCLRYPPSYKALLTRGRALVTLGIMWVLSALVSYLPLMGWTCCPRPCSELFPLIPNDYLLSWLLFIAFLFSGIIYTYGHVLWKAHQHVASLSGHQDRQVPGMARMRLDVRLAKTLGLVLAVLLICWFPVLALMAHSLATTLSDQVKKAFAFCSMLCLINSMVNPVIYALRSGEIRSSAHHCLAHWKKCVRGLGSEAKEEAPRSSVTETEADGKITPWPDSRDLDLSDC

For the compound `CCCCCCC(C)(C)c1ccc([C@@H]2C[C@H](O)CC[C@H]2CCCO)c(O)c1` [CP55940], in assay [1], the “Graph Min” value is 5.4524.

Consider `N.S=C(S)N1CCCC1` [APDTC], for which, in assay [2], the “decrease of IL-1β production” value worked out at 45.39%. Besides, the “decrease of IL-6 production” value in assay [3] is reported as 47.12%. Further, in assay [4], the “decrease of TNF-α production” value stood at 20.28%.
